# Measurements as given in patent US8420682B2, “N-phenylacetamide derivatives, which inhibit the enzyme SOAT-1, and pharmaceutical and cosmetic compositions containing them” (Galderma Research & Development, priority 2009, dated 2013).
# pIC50: −log10 of the molar value.
# Target: T1, enzyme ACAT-1 (Homo sapiens, UniProt P35610)
# T1 construct: endogenous in cells; host or cells: HepG2
# T1 sequence (P35610 1-550): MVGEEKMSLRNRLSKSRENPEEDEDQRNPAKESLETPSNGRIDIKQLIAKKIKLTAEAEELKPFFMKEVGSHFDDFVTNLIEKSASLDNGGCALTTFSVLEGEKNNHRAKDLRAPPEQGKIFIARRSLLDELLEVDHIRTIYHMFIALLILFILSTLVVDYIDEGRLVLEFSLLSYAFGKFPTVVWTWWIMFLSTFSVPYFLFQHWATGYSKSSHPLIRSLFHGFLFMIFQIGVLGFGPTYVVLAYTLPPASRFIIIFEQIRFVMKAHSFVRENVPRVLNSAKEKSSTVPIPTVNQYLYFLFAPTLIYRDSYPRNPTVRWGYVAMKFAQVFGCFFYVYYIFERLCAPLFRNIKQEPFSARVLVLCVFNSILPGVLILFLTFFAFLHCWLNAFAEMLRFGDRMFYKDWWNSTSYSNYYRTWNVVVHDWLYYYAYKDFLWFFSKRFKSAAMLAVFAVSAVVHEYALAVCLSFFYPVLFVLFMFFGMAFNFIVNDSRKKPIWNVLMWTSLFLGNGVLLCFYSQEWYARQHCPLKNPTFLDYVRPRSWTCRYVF
# Assay: HepG2 NBD-cholesterol fluorescence test for inhibitory activity towards the enzyme ACAT-1 (SOAT-1)
# Format: cell-based
# Conditions: HepG2 cells, NBD-cholesterol 1 μg/ml, incubation 6 hours at 37° C., fluorescence read (excitation 490 nm, emission 540 nm)
# Description: The compounds (I) according to the invention, and also the pharmaceutically acceptable salts, solvates and/or hydrates thereof, have inhibitory properties on the enzyme SOAT-1. This inhibitory activity on the enzyme SOAT-1 is measured according to a HepG2 primary […] test, as described in Example 7.
# The compounds of formula (I) according to the invention were subjected to a test for evaluating their inhibitory activity towards the enzyme ACAT-1, inspired by the following publication: “Identification of ACAT1- and ACAT2-specific inhibitors using a novel, cell based fluorescence assay: individual ACAT uniqueness”, J. Lipid. Res. (2004) vol. 45, pages 378-386.
# The principle of this test is based on the use of NBD-cholesterol, a cholesterol analogue whose fluorescence depends on its environment. When this molecule is in a polar environment, it is weakly fluorescent, whereas in a non-polar environment it is strongly fluorescent. Free NBD-cholesterol becomes inserted in cell membranes and is weakly fluorescent in this polar environment. When NBD-cholesterol is esterified with ACAT, the NBD-cholesterol ester enters non-polar lipid droplets and is then strongly fluorescent.
# The method below is applied: HepG2 cells are incubated in the presence of NBD-cholesterol (1 μg/ml) and of the test compound of formula (I) in black transparent-bottomed 96-well plates, at a rate of 30 000 cells per well. After incubation for 6 hours at 37° C. under 5% CO2, the medium is removed by turning upside-down and the cells are washed with twice 100 μl of PBS. After addition of 50 μl of lysis buffer (10 mM NaPO4, 1% Igepal), the plates are shaken for 5 minutes and the fluorescence is read (excitation at 490 nm, emission at 540 nm) on a Fusion machine (Perkin-Elmer).
row,SMILES,pIC50
1,"Cc1ccc(N2C(=O)N(CC(=O)Nc3c(C(C)C)cccc3C(C)C)C(=O)C23CCCCC3)cc1C#N [Compound 3, 2-[1-(3-cyano-4-methylphenyl)-2,4-dioxo-1,3-diaza-spiro[4.5]dec-3-yl]-N-(2,6-diisopropylphenyl)acetamide]",8.60
2,"CSc1ccc(N2C(=O)N(CC(=O)Nc3c(C(C)C)cccc3C(C)C)C(=O)C23CCCCC3)cc1 [Compound 4, N-(2,6-diisopropylphenyl)-2-[1-(4-methylsulfanyl-phenyl)-2,4-dioxo-1,3-diazaspiro[4.5]dec-3-yl]acetamide]",8.82

# Further compounds by rising pIC50, results first:
row,pIC50,SMILES
1,7.11,"CC(C)c1cccc(C(C)C)c1NC(=O)CN1C(=O)N(c2ccc(C#N)cc2)C2(CCCCC2)C1=O [Compound 2, 2-[1-(4-Cyanophenyl)-2,4-dioxo-1,3-diaza-spiro[4.5]dec-3-yl]-N-(2,6-diisopropylphenyl)acetamide]"
2,7.51,"CC(C)c1cccc(C(C)C)c1NC(=O)CN1C(=O)N(c2ccc(S(C)(=O)=O)cc2)C2(CCCCC2)C1=O [Compound 5, N-(2,6-Diisopropylphenyl)-2-[1-(4-methanesulfonylphenyl)-2,4-dioxo-1,3-diaza-spiro[4.5]dec-3-yl]acetamide]"
3,8.62,"CCOC(=O)c1ccc(N2C(=O)N(CC(=O)Nc3c(C(C)C)cccc3C(C)C)C(=O)C23CCCCC3)cc1 [Compound 1, 4-{3-[(2,6-Diisopropylphenylcarbamoyl)-methyl]-2,4-dioxo-1,3-diazaspiro[4.5]dec-1-yl}benzoic acid ethyl ester]"
